# Experimental data published in the supplement of paper PMC10307832.
# Key:
# Test in all cases: relative viability (nuclei count vs DMSO), 5 days (fraction); higher = more cells survive
# Dactolisib + Trametinib = compound: Cn1c(=O)n(-c2ccc(C(C)(C)C#N)cc2)c2c3cc(-c4cnc5ccccc5c4)ccc3ncc21 [Dactolisib] + CC(=O)Nc1cccc(-n2c(=O)n(C3CC3)c(=O)c3c(Nc4ccc(I)cc4F)n(C)c(=O)c(C)c32)c1 [Trametinib] (partner 0.02 µM)
# How it was run: (§1)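 After 5 days of treatment, lung cancer cells in 1536-well plates were fixed and stained in a single step (final 0.05% Triton X-100, 1% formaldehyde, 1 ug/ml Hoechst) and their nuclei counted on 4× images. Treatment had been applied by pin tool the day after seeding as one drug alone or as a fixed anchor-drug dose with five library-drug doses (not always all listed) in √10 steps. Relative viability is the nuclei count of treated wells divided by that of vehicle wells, and values are medians of duplicate plates.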
# Dactolisib + Pictilisib = compound: Cn1c(=O)n(-c2ccc(C(C)(C)C#N)cc2)c2c3cc(-c4cnc5ccccc5c4)ccc3ncc21 [Dactolisib] + CS(=O)(=O)N1CCN(Cc2cc3nc(-c4cccc5[nH]ncc45)nc(N4CCOCC4)c3s2)CC1 [Pictilisib] (partner 1 µM)
# How it was run: as §1
# AZ505 + Dasatinib = compound: C1CCC(CC1)N(CCNCCC2=C3C(=C(C=C2)O)NC(=O)CO3)C(=O)CCNCCC4=CC(=C(C=C4)Cl)Cl [AZ505] + Cc1nc(Nc2ncc(C(=O)Nc3c(C)cccc3Cl)s2)cc(N2CCN(CCO)CC2)n1 [Dasatinib] (partner 0.075 µM)
# How it was run: as §1
# Dactolisib + Foretinib = compound: Cn1c(=O)n(-c2ccc(C(C)(C)C#N)cc2)c2c3cc(-c4cnc5ccccc5c4)ccc3ncc21 [Dactolisib] + COc1cc2c(Oc3ccc(NC(=O)C4(C(=O)Nc5ccc(F)cc5)CC4)cc3F)ccnc2cc1OCCCN1CCOCC1 [Foretinib] (partner 0.25 µM)
# How it was run: as §1
Cell Line,relative viability (Dactolisib + Trametinib; first compound 0.002 µM),relative viability (Dactolisib + Trametinib; first compound 0.006325 µM),relative viability (Dactolisib + Trametinib; first compound 0.02 µM),relative viability (Dactolisib + Trametinib; first compound 0.06325 µM),relative viability (Dactolisib + Trametinib; first compound 0.2 µM),relative viability (Dactolisib + Pictilisib; first compound 0.002 µM),relative viability (Dactolisib + Pictilisib; first compound 0.006325 µM),relative viability (Dactolisib + Pictilisib; first compound 0.02 µM),relative viability (Dactolisib + Pictilisib; first compound 0.06325 µM),relative viability (Dactolisib + Pictilisib; first compound 0.2 µM),relative viability (AZ505 + Dasatinib; first compound 0.08 µM),relative viability (AZ505 + Dasatinib; first compound 0.253 µM),relative viability (AZ505 + Dasatinib; first compound 0.8 µM),relative viability (AZ505 + Dasatinib; first compound 2.53 µM),relative viability (AZ505 + Dasatinib; first compound 8 µM),relative viability (Dactolisib + Foretinib; first compound 0.002 µM),relative viability (Dactolisib + Foretinib; first compound 0.006325 µM),relative viability (Dactolisib + Foretinib; first compound 0.02 µM),relative viability (Dactolisib + Foretinib; first compound 0.06325 µM),relative viability (Dactolisib + Foretinib; first compound 0.2 µM)
HCC-44,1.14,1.13,1.08,0.952,0.737,0.672,0.536,0.709,0.536,0.368,,,,,,,,,,
HCC-827,0.582,0.563,0.477,0.313,0.269,1.28,0.997,0.932,0.654,0.63,0.399,0.35,0.385,0.313,0.407,0.995,1.04,0.913,0.815,0.283
NCI-H1623,,,,,,,,,,,0.488,0.466,0.598,0.479,0.612,0.907,0.882,0.768,0.596,0.418
NCI-H2347,0.277,0.262,0.263,0.158,0.295,0.49,0.599,0.482,0.389,0.237,0.254,,,,0.279,0.848,1,0.693,0.765,0.486
PC-14,0.81,0.583,0.367,0.0961,0.0834,0.9,0.586,0.412,0.196,0.0762,0.219,0.241,0.296,0.264,0.227,0.982,0.97,0.973,0.592,0.399
NCI-H1651,0.816,0.825,0.822,0.599,0.452,0.654,0.514,0.449,0.328,0.265,0.47,0.416,0.386,0.441,0.49,0.918,0.782,0.561,0.321,0.345
HARA,0.872,0.549,0.732,0.259,0.218,0.469,0.34,0.366,0.277,0.236,0.191,0.229,0.367,0.318,0.217,1.12,0.878,0.771,0.763,0.225
NCI-H1650,0.63,0.614,0.503,0.339,0.22,0.672,0.48,0.524,0.321,0.323,0.298,0.281,0.37,0.321,0.295,1.08,1.05,0.919,0.781,0.531
NCI-H1395,0.867,0.889,0.93,0.637,0.487,0.64,0.611,0.569,0.525,0.446,0.427,0.451,0.375,0.419,0.455,1.03,0.916,0.942,0.636,0.537
SK-LU-1,0.476,0.657,0.392,0.34,0.283,0.48,0.547,0.484,0.432,0.211,0.182,0.168,0.163,0.161,0.16,0.806,0.713,0.575,0.382,0.245
LU99A,0.527,0.493,0.4,0.286,0.192,0.299,0.285,0.269,0.222,0.179,,0.475,0.618,0.48,0.536,0.742,0.75,0.582,0.386,0.312
NCI-H1355,0.45,0.37,0.384,0.215,0.203,0.505,0.401,0.43,0.32,0.241,0.695,0.674,0.603,0.702,0.748,1.05,0.902,0.664,0.509,0.223
HCC-78,0.726,0.851,0.69,0.445,0.312,0.225,0.22,0.195,0.206,0.193,0.336,0.411,0.333,0.445,0.425,0.629,0.589,0.451,0.376,0.338
NCI-H1563,,,,,,0.682,0.624,0.625,0.651,0.573,0.456,0.467,0.498,0.481,0.432,0.919,0.885,0.913,0.654,0.651
HCC-15,0.383,0.346,0.365,0.215,0.162,0.762,0.746,0.707,0.392,0.343,0.513,0.581,0.654,0.524,0.618,1.02,1.01,0.936,0.548,0.446
EKVX,0.368,0.377,0.258,0.229,0.213,0.402,0.433,0.37,0.293,0.241,0.556,0.543,0.539,0.494,0.504,0.598,0.743,0.652,0.715,0.568
NCI-H2087,0.229,0.217,0.214,0.127,0.114,1.02,0.867,0.714,0.463,0.336,0.832,0.669,0.808,0.551,0.884,0.979,0.919,0.817,0.378,0.33
